Results: the NIST ThermoML archive (doi:10.1021/je100851w)
± gives the expanded uncertainty stated by the source.

Experiment: xn = mol fraction of the nth substance listed
Settings: Vibrating tube method

S [hydrogen sulfide] + CCC
Settings | mass density [kg/m3]
263.11 K, 8 kPa, Gas, x1 = 0.2227 | 0.1
263.11 K, 159 kPa, Gas, x1 = 0.2227 | 3.1 ± 0.1
263.11 K, 298 kPa, Gas, x1 = 0.2227 | 6.1 ± 0.1
263.11 K, 438 kPa, Gas, x1 = 0.2227 | 9.1 ± 0.1
263.11 K, 707 kPa, Liquid, x1 = 0.2227 | 571.2 ± 0.3
263.11 K, 2357 kPa, Liquid, x1 = 0.2227 | 574.3 ± 0.3
263.11 K, 4057 kPa, Liquid, x1 = 0.2227 | 577.3 ± 0.3
263.11 K, 5814 kPa, Liquid, x1 = 0.2227 | 580.3 ± 0.4
263.11 K, 7697 kPa, Liquid, x1 = 0.2227 | 583.3 ± 0.4
263.11 K, 9735 kPa, Liquid, x1 = 0.2227 | 586.4 ± 0.5
263.11 K, 11879 kPa, Liquid, x1 = 0.2227 | 589.5 ± 0.5
263.11 K, 14087 kPa, Liquid, x1 = 0.2227 | 592.6 ± 0.5
263.11 K, 16300 kPa, Liquid, x1 = 0.2227 | 595.6 ± 0.6
263.11 K, 18708 kPa, Liquid, x1 = 0.2227 | 598.6 ± 0.6
263.11 K, 21118 kPa, Liquid, x1 = 0.2227 | 601.6 ± 0.7
263.11 K, 23736 kPa, Liquid, x1 = 0.2227 | 604.6 ± 0.7
263.11 K, 26466 kPa, Liquid, x1 = 0.2227 | 607.7 ± 0.8
263.11 K, 29282 kPa, Liquid, x1 = 0.2227 | 610.8 ± 0.8
263.11 K, 32290 kPa, Liquid, x1 = 0.2227 | 613.9 ± 0.9
263.11 K, 35311 kPa, Liquid, x1 = 0.2227 | 616.9 ± 0.9
263.11 K, 38486 kPa, Liquid, x1 = 0.2227 | 620 ± 1
263.11 K, 41881 kPa, Liquid, x1 = 0.2227 | 623.1 ± 1
268.09 K, 9 kPa, Gas, x1 = 0.2691 | 0.2
268.09 K, 180 kPa, Gas, x1 = 0.2691 | 3.5 ± 0.1
268.09 K, 335 kPa, Gas, x1 = 0.2691 | 6.7 ± 0.1
268.09 K, 476 kPa, Gas, x1 = 0.2691 | 9.7 ± 0.1
268.09 K, 818 kPa, Liquid, x1 = 0.2691 | 570 ± 0.3
268.09 K, 2369 kPa, Liquid, x1 = 0.2691 | 573.1 ± 0.3
268.09 K, 3999 kPa, Liquid, x1 = 0.2691 | 576.3 ± 0.3
268.09 K, 5608 kPa, Liquid, x1 = 0.2691 | 579.3 ± 0.4
268.09 K, 7451 kPa, Liquid, x1 = 0.2691 | 582.5 ± 0.4
268.09 K, 9258 kPa, Liquid, x1 = 0.2691 | 585.5 ± 0.4
268.09 K, 11262 kPa, Liquid, x1 = 0.2691 | 588.7 ± 0.5
268.09 K, 13236 kPa, Liquid, x1 = 0.2691 | 591.8 ± 0.5
268.09 K, 15455 kPa, Liquid, x1 = 0.2691 | 595 ± 0.6
268.09 K, 17739 kPa, Liquid, x1 = 0.2691 | 598.2 ± 0.6
268.09 K, 20006 kPa, Liquid, x1 = 0.2691 | 601.2 ± 0.6
268.09 K, 22487 kPa, Liquid, x1 = 0.2691 | 604.4 ± 0.7
268.09 K, 24903 kPa, Liquid, x1 = 0.2691 | 607.4 ± 0.7
268.09 K, 27518 kPa, Liquid, x1 = 0.2691 | 610.5 ± 0.8
268.09 K, 30199 kPa, Liquid, x1 = 0.2691 | 613.6 ± 0.8
268.09 K, 33045 kPa, Liquid, x1 = 0.2691 | 616.7 ± 0.9
268.09 K, 36027 kPa, Liquid, x1 = 0.2691 | 619.8 ± 0.9
268.09 K, 39139 kPa, Liquid, x1 = 0.2691 | 622.9 ± 1
293.28 K, 14 kPa, Gas, x1 = 0.2227 | 0.2
293.28 K, 186 kPa, Gas, x1 = 0.2227 | 3.3 ± 0.1
293.28 K, 350 kPa, Gas, x1 = 0.2227 | 6.3 ± 0.1
293.28 K, 509 kPa, Gas, x1 = 0.2227 | 9.4 ± 0.1
293.28 K, 665 kPa, Gas, x1 = 0.2227 | 12.6 ± 0.1
293.28 K, 804 kPa, Gas, x1 = 0.2227 | 15.6 ± 0.1
293.28 K, 932 kPa, Gas, x1 = 0.2227 | 18.7 ± 0.1
293.28 K, 1050 kPa, Gas, x1 = 0.2227 | 21.9 ± 0.1
293.28 K, 3770 kPa, Liquid, x1 = 0.2227 | 518.4 ± 0.4
293.28 K, 4686 kPa, Liquid, x1 = 0.2227 | 521.6 ± 0.4
293.28 K, 5576 kPa, Liquid, x1 = 0.2227 | 524.8 ± 0.4
293.28 K, 6556 kPa, Liquid, x1 = 0.2227 | 527.8 ± 0.4
293.28 K, 7610 kPa, Liquid, x1 = 0.2227 | 530.9 ± 0.5
293.28 K, 8755 kPa, Liquid, x1 = 0.2227 | 534.1 ± 0.5
293.28 K, 9941 kPa, Liquid, x1 = 0.2227 | 537.3 ± 0.5
293.28 K, 11195 kPa, Liquid, x1 = 0.2227 | 540.5 ± 0.5
293.28 K, 12466 kPa, Liquid, x1 = 0.2227 | 543.5 ± 0.6
293.28 K, 13825 kPa, Liquid, x1 = 0.2227 | 546.6 ± 0.6
293.28 K, 15156 kPa, Liquid, x1 = 0.2227 | 549.6 ± 0.6
293.28 K, 16605 kPa, Liquid, x1 = 0.2227 | 552.6 ± 0.6
293.28 K, 18128 kPa, Liquid, x1 = 0.2227 | 555.6 ± 0.7
293.28 K, 19790 kPa, Liquid, x1 = 0.2227 | 558.8 ± 0.7
293.28 K, 21473 kPa, Liquid, x1 = 0.2227 | 561.9 ± 0.7
293.28 K, 23224 kPa, Liquid, x1 = 0.2227 | 564.9 ± 0.8
293.28 K, 25127 kPa, Liquid, x1 = 0.2227 | 568.1 ± 0.8
293.28 K, 27137 kPa, Liquid, x1 = 0.2227 | 571.3 ± 0.8
293.28 K, 29216 kPa, Liquid, x1 = 0.2227 | 574.5 ± 0.9
293.28 K, 31365 kPa, Liquid, x1 = 0.2227 | 577.6 ± 0.9
293.28 K, 33453 kPa, Liquid, x1 = 0.2227 | 580.6 ± 1
293.28 K, 35831 kPa, Liquid, x1 = 0.2227 | 583.8 ± 1
313.12 K, 202 kPa, Gas, x1 = 0.2691 | 3.3 ± 0.1
313.12 K, 382 kPa, Gas, x1 = 0.2691 | 6.4 ± 0.1
313.12 K, 558 kPa, Gas, x1 = 0.2691 | 9.5 ± 0.1
313.12 K, 722 kPa, Gas, x1 = 0.2691 | 12.6 ± 0.1
313.12 K, 878 kPa, Gas, x1 = 0.2691 | 15.7 ± 0.1
313.12 K, 1040 kPa, Gas, x1 = 0.2691 | 19 ± 0.1
313.12 K, 1178 kPa, Gas, x1 = 0.2691 | 22 ± 0.1
313.12 K, 1322 kPa, Gas, x1 = 0.2691 | 25.3 ± 0.1
313.12 K, 1455 kPa, Gas, x1 = 0.2691 | 28.5 ± 0.1
313.12 K, 1580 kPa, Gas, x1 = 0.2691 | 31.7 ± 0.1
313.12 K, 1693 kPa, Gas, x1 = 0.2691 | 34.9 ± 0.1
313.12 K, 1773 kPa, Gas, x1 = 0.2691 | 37.9 ± 0.1
313.12 K, 2189 kPa, Liquid, x1 = 0.2691 | 491.5 ± 0.3
313.12 K, 2787 kPa, Liquid, x1 = 0.2691 | 494.6 ± 0.4
313.12 K, 3465 kPa, Liquid, x1 = 0.2691 | 498 ± 0.4
313.12 K, 4173 kPa, Liquid, x1 = 0.2691 | 501.2 ± 0.4
313.12 K, 4917 kPa, Liquid, x1 = 0.2691 | 504.4 ± 0.4
313.12 K, 5710 kPa, Liquid, x1 = 0.2691 | 507.6 ± 0.4
313.12 K, 6516 kPa, Liquid, x1 = 0.2691 | 510.6 ± 0.5
313.12 K, 7434 kPa, Liquid, x1 = 0.2691 | 513.9 ± 0.5
313.12 K, 8423 kPa, Liquid, x1 = 0.2691 | 517.3 ± 0.5
313.12 K, 9421 kPa, Liquid, x1 = 0.2691 | 520.5 ± 0.5
313.12 K, 10495 kPa, Liquid, x1 = 0.2691 | 523.7 ± 0.5
313.12 K, 11669 kPa, Liquid, x1 = 0.2691 | 527.1 ± 0.6
313.12 K, 12933 kPa, Liquid, x1 = 0.2691 | 530.5 ± 0.6
313.12 K, 14205 kPa, Liquid, x1 = 0.2691 | 533.7 ± 0.6
313.12 K, 15491 kPa, Liquid, x1 = 0.2691 | 536.9 ± 0.6
313.12 K, 16847 kPa, Liquid, x1 = 0.2691 | 540 ± 0.7
313.12 K, 18303 kPa, Liquid, x1 = 0.2691 | 543.3 ± 0.7
313.12 K, 19787 kPa, Liquid, x1 = 0.2691 | 546.4 ± 0.7
313.12 K, 21354 kPa, Liquid, x1 = 0.2691 | 549.6 ± 0.8
313.12 K, 22903 kPa, Liquid, x1 = 0.2691 | 552.6 ± 0.8
313.12 K, 24556 kPa, Liquid, x1 = 0.2691 | 555.7 ± 0.8
313.12 K, 26292 kPa, Liquid, x1 = 0.2691 | 558.8 ± 0.9
313.12 K, 28082 kPa, Liquid, x1 = 0.2691 | 561.8 ± 0.9
313.12 K, 29973 kPa, Liquid, x1 = 0.2691 | 564.9 ± 0.9
313.12 K, 32005 kPa, Liquid, x1 = 0.2691 | 568.1 ± 1
313.12 K, 34062 kPa, Liquid, x1 = 0.2691 | 571.2 ± 1
313.12 K, 36163 kPa, Liquid, x1 = 0.2691 | 574.3 ± 1
313.12 K, 38383 kPa, Liquid, x1 = 0.2691 | 577.4 ± 1.1
333.22 K, 50 kPa, Gas, x1 = 0.2227 | 0.8 ± 0.1
333.22 K, 260 kPa, Gas, x1 = 0.2227 | 4.1 ± 0.1
333.22 K, 470 kPa, Gas, x1 = 0.2227 | 7.5 ± 0.1
333.22 K, 671 kPa, Gas, x1 = 0.2227 | 10.9 ± 0.1
333.22 K, 838 kPa, Gas, x1 = 0.2227 | 13.9 ± 0.1
333.22 K, 995 kPa, Gas, x1 = 0.2227 | 16.9 ± 0.1
333.22 K, 1186 kPa, Gas, x1 = 0.2227 | 20.5 ± 0.1
333.22 K, 1363 kPa, Gas, x1 = 0.2227 | 24.1 ± 0.1
333.22 K, 1512 kPa, Gas, x1 = 0.2227 | 27.2 ± 0.1
333.22 K, 1663 kPa, Gas, x1 = 0.2227 | 30.6 ± 0.1
333.22 K, 1805 kPa, Gas, x1 = 0.2227 | 33.9 ± 0.1
333.22 K, 1931 kPa, Gas, x1 = 0.2227 | 37 ± 0.1
